{"source": "patent EP1095657A2", "about": "“Compositions for the regulation of cytokine activity” (priority 1992, dated 1994)", "key": {"[1]": {"tested_on": "experimental DTH reaction in mice", "assay": "In vivo bioassay of inhibition of experimental DTH reactivity (oxazolone ear swelling)", "design": "species or system mice (BALB/c or CD1)", "conditions": "CD1 mice, s.c.", "protocol": "Groups of inbred BALB/c (Jackson Laboratories, Bar Harbor, ME) or of outbred CD1 (Weizmann Institute Animal Breeding Center, Rehovot, Israel) mice are sensitized on the shaved abdominal skin with 100 µl of 2% oxazolone (OX) in acetone/olive oil (4/1, v/v) applied topically. DTH sensitivity is elicited 5 days later as follows: mice are challenged with 20 µl of 0.5% OX (10 µl administered topically to each side of the ear) in acetone/olive oil. A constant area of the ear is measured immediately before challenge and 24 and 48 h later with a Mitutoyo engineer's micrometer. The individual measuring ear swelling is blinded to the identity of the groups of mice. The increment (△) of ear swelling is expressed as the mean in units of 10^-2 mm or 10^-4 inch (+SE) depending on the micrometer that is used. Percent inhibition is calculated as follows: %Inhibition= 1-((Treated-negative control)/(positive control-negative control)) [formula]\nMice are treated with LMWH as in Example 5.1, injected the day before primary sensitization to OX. On the fifth day after sensitization to OX, the mice are challenged to induce a DTH reaction, as described above.\nThe positive control is the DTH reaction elicited in immunized mice in the absence of treatment with LMWH. The negative control is the background swelling produced by the antigen in naive (non-immunized) mice.\nBALB/c mice (at least 5 mice per group) were sensitized on the shaved abdomen with 3% 4-ethoxymethylene-2-phenyl oxazolone (OX; BDH Chemicals, GB) in acetone/olive oil applied topically. DTH sensitivity was elicited 5 days later as follows. Mice were challenged with 0.5% OX in acetone/olive oil. The ear was measured immediately before challenge and 24 h later with Mitutoyo engineer's micrometer (Japan). The individual measuring the swelling of the ear was blinded to the identity of the groups of mice. To interfere with DTH response, the low molecular weight immuno-regulatory fractions, diluted in PBS, were administrated subcutaneously into the back of the treated mice at the indicated time schedules and concentrations. Treated mice were inspected during and after (>2 months) the treatment and no major side-effects were observed clinically.\nIn particular, CD1 mice (available from the Weizmann Institute Animal Breeding Center, Rehovot, Israel), 4-12 mice per group, were treated as described in Section 5.2 or 6.8."}, "[2]": {"tested_on": "IDDM of NOD mice", "assay": "Insulin dependent diabetes mellitus (IDDM) of NOD mice", "format": "in vivo"}, "[3]": {"tested_on": "mortality after gamma irradiation", "assay": "Radioprotective effect in gamma-irradiated mice", "format": "in vivo, BALB/c mice", "protocol": "Groups of female BALB/c mice, 8 weeks old, 5-10 mice per group, were injected subcutaneously with either saline (0.1 ml, control), H-9392 (30 ng/mouse), or glucosamine (10,000 ng/mouse) 1 day before irradiation, and weekly thereafter until termination of the experiment on day 30. All the mice were irradiated to a dose of 700 rads using a ^60Co gamma radiation source.\nIn a separate experiment, groups of BALB/c mice (5 mice to a group) were likewise exposed to 750 rads of gamma-rays, except that these groups of mice were treated with test substances (saline at 0.1 ml per mouse; H-9392 at 0.3, 3, 30 and 300 ng/mouse; and glucosamine at 1, 10 and 100 µg/mouse) on the day before irradiation, on the sixth day after irradiation, and once again on the thirteenth day after irradiation only. All treatment ceased after the third and last administration."}, "[4]": {"tested_on": "respiratory distress after aerosolized OVA challenge", "assay": "Experimental allergic bronchial asthma in rats", "format": "in vivo, Brown Norway rats", "conditions": "30 ng s.c. on day 30, challenge on day 35; saline group Grade 3 or 4", "protocol": "To assess the ability of substance H-9392 to prevent a bronchial asthma attack, 6 male Brown Norway rats were primed to ovalbumin (OVA) by subcutaneous injection of 1 mg of OVA in suspension with 200 mg AlOH/ml 0.9% saline solution accompanied by intraperitoneal injection of 1 ml solution containing 6x10^6 heat killed Bordetella pertussis bacteria (Pasteur Merieux, S.V.), on day zero. Subsequent challenges consisted of a 5 minute period of inhalation of OVA (1 mg/ml solution) aerosolized in a Devilbiss Nebulizer operated at an airflow of 6 L/min. Respiratory Distress (RD) responses were scored as Grade 0, no signs of distress; Grade 1, tachypnea; Grade 2, moderate labored breathing; Grade 3 severe labored breathing with mouth open; Grade 4, loss of consciousness and muscular tone. Sixteen days following primary immunization all animals were exposed to an initial aerosolized challenge to establish the positive control. The animals were coded so that the observer was ignorant of the subject animal's history.\nOn day thirty, the animals were divided into 2 groups and given either saline (control Group A) or 30 ng of substance H-9392, s.c., (Group B) and challenged on day 35 as above."}, "[5]": {"tested_on": "LPS-induced uveitis", "conditions": "for Median Protein: LPS with saline 18.4, no LPS 0.36"}, "[6]": {"tested_on": "ELAM-1", "assay": "TNF-α-induced expression of adhesion molecules by endothelial cells (ELISA)", "conditions": "for Recombinant human TNFα-induced adhesion molecules (O.D 492): 1 h pretreatment of EC, TNFα alone 1.2±0.1"}, "[7]": {"tested_on": "ICAM-1", "assay": "TNF-α-induced expression of adhesion molecules by endothelial cells (ELISA)", "conditions": "1 h pretreatment of EC, TNFα alone 2.2±0.2"}, "[8]": {"tested_on": "secretion of active TNF-α by activated human CD4+ T cells", "assay": "Bioassay of TNF-α activity using human CD4+ T cells derived from PBLs (human PBL bioassay)", "conditions": "conc range of 1 µg/ml - 0.01 pg/ml; inconsistent = not the same result in all three bioassays"}}, "note": "Where two headings read alike, the source gives them in different places.", "data": [{"smiles": "O=C(O)C1=C[C@H](O)[C@@H](OS(=O)(=O)O)[C@H](O[C@H]2[C@H](O)[C@@H](NS(=O)(=O)O)C(O)O[C@@H]2CO)O1", "note": "(stereo partly drawn) [H-9392, 2-O-sulfate-4-deoxy-4-en-iduronic acid-(α-1,4)-2-deoxy-2-N-sulfateglucosamine]", "values": [{"measurement": "Inhmax", "setting": "[1]", "value": 78, "unit": "%"}, {"measurement": "DTH", "setting": "[1]; at that dose, value in parentheses in the cell taken as positive control, not reported", "value": "4.2 ± 0.7 (17.8 ± 0.9) 10^-2 mm"}, {"measurement": "dose window", "setting": "[1]; broadest of the compounds tested", "value": "0.000132-0.004 µg/gm"}, {"measurement": "\"R\" value", "setting": "[1]; inhibitory, 0 = no effect", "value": "6.5 x 10^4 % x (μg/gm)^-1"}, {"measurement": "mice that had become diabetic", "setting": "[2]; at 4.5 months, H-9392 30 ng/mouse, glucosamine 10,000 ng/mouse s.c., all control mice diabetic", "value": "less than 50%"}, {"measurement": "mice that had died, in words", "setting": "[2]; by age 5 months, H-9392 30 ng, glucosamine 10,000 ng, all control mice had died", "value": "none"}, {"measurement": "mortality rate", "setting": "[3]; 700 rads, by day 30, s.c. 1 day before irradiation and weekly, H-9392 30 ng/mouse, glucosamine 10,000 ng/mouse, saline 100%", "value": 40, "unit": "%"}, {"measurement": "mice that had died by the thirtieth day after irradiation", "setting": "[3]; 750 rads, 30 ng/mouse, three administrations, 5 mice to a group", "value": "only one mouse"}, {"measurement": "activity in suppressing mortality after irradiation, in words", "setting": "[3]; 750 rads, three administrations, 300 ng H-9392, 1 µg glucosamine", "value": "moderate activity in suppressing mortality"}, {"measurement": "respiratory distress after challenge, in words", "setting": "[4]", "value": "mere tachypnea"}, {"measurement": "Median Protein", "setting": "[5]; 32 ng/rat at Day 1", "value": 5.2, "unit": "mg/mL"}, {"measurement": "Median Protein", "setting": "[5]; 500 ng/rat at Day 1", "value": 4.8, "unit": "mg/mL"}, {"measurement": "suppression of the inflammation relative to control", "setting": "[5]; single administration, at either dosage", "value": "over 70%"}, {"measurement": "Recombinant human TNFα-induced adhesion molecules (O.D 492)", "setting": "[6]; 50 pg/ml, no TNFα 0.12±0.01", "value": "0.6±0.1", "unit": "O.D 492"}, {"measurement": "Recombinant human TNFα-induced adhesion molecules (O.D 492)", "setting": "[6]; 100 pg/ml", "value": "0.9±0.07", "unit": "O.D 492"}, {"measurement": "inhibition of the up regulation of EC expression of adhesion molecules induced by TNF-α", "setting": "[6]; ELAM-1 and ICAM-1 not told apart in the sentence", "value": "up to 50%"}, {"measurement": "Recombinant human TNFα-induced adhesion molecules (O.D 492)", "setting": "[7]; 50 pg/ml, no TNFα 0.18±0.01", "value": "1.0±0.04", "unit": "O.D 492"}, {"measurement": "Recombinant human TNFα-induced adhesion molecules (O.D 492)", "setting": "[7]; 100 pg/ml", "value": "1.4±0.03", "unit": "O.D 492"}, {"measurement": "Bioassay of TNF Activity, in words", "setting": "[8]", "value": "Inconsistent"}]}]}
